Test results from patent US10125126B2, “N-cycloalkyl-N-[(heterocyclylphenyl)methylene]-(thio)carboxamide derivatives” (BAYER CROPSCIENCE AG, priority 2012, dated 2018).

Tested on: Sphaerotheca fuliginea
Assay: In vivo preventive test on Sphaerotheca fuliginea (powdery mildew on cucurbits)
Details: 500 ppm of active ingredient; gherkin plants; 12 days after contamination
Procedure: In Vivo Preventive Test on Sphaerotheca fuliginea (Powdery Mildew on Cucurbits) […] Gherkin plants (“Vert petit de Paris” variety), sown in starter cups on a 50/50 peat soil-pozzolana substrate and grown at 24° C., are treated at the Z11 cotyledon stage by spraying with the active ingredient prepared as described above. Plants, used as controls, are treated with the mixture of acetone/tween/DMSO/water not containing the active material. After 24 hours, the plants are contaminated by spraying the cotyledons with an aqueous suspension of Sphaerotheca fuliginea spores (100 000 spores per mL). The spores are collected from infected plants. […] Grading (% of efficacy) is carried out 12 days after the contamination, in comparison with the control plants.

Structure (SMILES)	Efficacy
Cc1csc(-c2ccc(Cl)cc2CN(C(=O)c2c(C(F)F)nn(C)c2F)C2CC2)c1 [I.103]	100%
Cc1nn(C)c(C)c1-c1ccccc1CN(C(=O)c1c(C(F)F)nn(C)c1F)C1CC1 [I.114]	94%
COc1ccsc1-c1ccccc1CN(C(=O)c1c(C(F)F)nn(C)c1F)C1CC1 [I.120]	100%
COc1ccsc1-c1ccc(Cl)cc1CN(C(=O)c1c(C(F)F)nn(C)c1F)C1CC1 [I.121]	100%
COc1ccsc1-c1cc(F)ccc1CN(C(=O)c1c(C(F)F)nn(C)c1F)C1CC1 [I.122]	100%
COc1ccsc1-c1cc(Cl)ccc1CN(C(=O)c1c(C(F)F)nn(C)c1F)C1CC1 [I.123]	100%
Cn1nc(C(F)F)c(C(=O)N(Cc2ccccc2-c2ccsc2Cl)C2CC2)c1F [I.138]	100%
Cn1nc(C(F)F)c(C(=O)N(Cc2ccc(F)cc2-c2csc3ccccc23)C2CC2)c1F [I.158]	100%
Cn1nc(C(F)F)c(C(=O)N(Cc2ccc(Cl)cc2-c2csc3ccccc23)C2CC2)c1F [I.159]	100%

Tested on: Uromyces appendiculatus
Assay: In vivo preventive test on Uromyces appendiculatus (bean rust)
Details: 500 ppm of active ingredient; bean plants; 11 days after contamination
Procedure: In Vivo Preventive Test on Uromyces appendiculatus (Bean Rust) […] Bean plants (“Saxa” variety), sown in starter cups on a 50/50 peat soil pozzolana substrate and grown at 24° C., are treated at the 2 leaf stage (9 cm height) by spraying with the active ingredient prepared as described above. Plants, used as controls, are treated with the mixture of acetone/tween/DMSO/water not containing the active material. After 24 hours, the plants are contaminated by spraying the leaves with an aqueous suspension of Uromyces appendiculatus spores (150 000 spores per mL). The spores are collected from infected plants and are suspended in water containing 2.5 mL/L of Tween 80 at 10%. […] Grading (% of efficacy) is carried out 11 days after the contamination, in comparison with the control plants.

Structure (SMILES)	Efficacy
Cc1csc(-c2ccc(Cl)cc2CN(C(=O)c2c(C(F)F)nn(C)c2F)C2CC2)c1 [I.103]	94%
COc1ccsc1-c1ccccc1CN(C(=O)c1c(C(F)F)nn(C)c1F)C1CC1 [I.120]	100%
COc1ccsc1-c1cc(F)ccc1CN(C(=O)c1c(C(F)F)nn(C)c1F)C1CC1 [I.122]	100%
COc1ccsc1-c1cc(Cl)ccc1CN(C(=O)c1c(C(F)F)nn(C)c1F)C1CC1 [I.123]	99%
Cn1nc(C(F)F)c(C(=O)N(Cc2ccccc2-c2ccsc2Cl)C2CC2)c1F [I.138]	100%
Cn1nc(C(F)F)c(C(=O)N(Cc2ccc(F)cc2-c2csc3ccccc23)C2CC2)c1F [I.158]	91%
Cn1nc(C(F)F)c(C(=O)N(Cc2ccc(Cl)cc2-c2csc3ccccc23)C2CC2)c1F [I.159]	84%

Tested on: not listed separately
Assay: log P by HPLC on a reversed-phase column (C 18), EEC Directive 79/831 Annex V.A8
Assay type: physicochemical
Details: HPLC on reversed-phase column (C 18), 40° C., 0.1% aqueous formic acid and acetonitrile, linear gradient 10% to 90% acetonitrile
Method in brief: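 Reversed-phase C18 HPLC at 40° C with a linear 10% to 90% acetonitrile gradient against 0.1% aqueous formic acid. Log P is read from retention time by linear interpolation between successive unbranched alkan-2-ones (C3–C16) of known log P. UV spectra from 200 to 400 nm, taken at chromatographic peak maxima, give lambda-max.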

Structure (SMILES)	logP
Cn1nc(C(F)F)c(C(=O)N(Cc2cc(-c3ccco3)ccc2Cl)C2CC2)c1F [I.34]	3.81
Cn1cc(C(=O)N(Cc2cc(-c3ccco3)ccc2Cl)C2CC2)c(C(F)F)n1 [I.36]	3.44
Cc1ccc(-c2cnn(C)c2)c(CN(C(=O)c2c(C(F)F)nn(C)c2Cl)C2CC2)c1 [I.57]	2.71
Cn1cc(C(=O)N(Cc2cc(-c3ccsc3)ccc2Cl)C2CC2)c(C(F)F)n1 [I.93]	3.59
Cc1csc(-c2ccc(Cl)cc2CN(C(=O)c2c(C(F)F)nn(C)c2F)C2CC2)c1 [I.103]	4.51
Cc1nn(C)c(C)c1-c1ccccc1CN(C(=O)c1c(C(F)F)nn(C)c1F)C1CC1 [I.114]	2.52
COc1ccsc1-c1ccccc1CN(C(=O)c1c(C(F)F)nn(C)c1F)C1CC1 [I.120]	3.52
COc1ccsc1-c1ccc(Cl)cc1CN(C(=O)c1c(C(F)F)nn(C)c1F)C1CC1 [I.121]	3.99
COc1ccsc1-c1cc(F)ccc1CN(C(=O)c1c(C(F)F)nn(C)c1F)C1CC1 [I.122]	3.70

Now from value to compound:

logP	Structure (SMILES)
4.14	COc1ccsc1-c1cc(Cl)ccc1CN(C(=O)c1c(C(F)F)nn(C)c1F)C1CC1 [I.123]
3.92	Cn1nc(C(F)F)c(C(=O)N(Cc2ccccc2-c2ccsc2Cl)C2CC2)c1F [I.138]
4.44	Cn1nc(C(F)F)c(C(=O)N(Cc2ccc(F)cc2-c2csc3ccccc23)C2CC2)c1F [I.158]
4.92	Cn1nc(C(F)F)c(C(=O)N(Cc2ccc(Cl)cc2-c2csc3ccccc23)C2CC2)c1F [I.159]

Tested on: Pyrenophora teres
Assay: In vivo preventive test on Pyrenophora teres (barley)
Details: 100 ppm of active ingredient; barley plants; 14 days after contamination
Procedure: In Vivo Preventive Test on Pyrenophora teres (Barley) […] Barley plants (“Plaisant” variety), sown in starter cups on a 50/50 peat soil pozzolana substrate and grown at 22° C., are treated at the 1 leaf stage (10 cm height) by spraying with the active ingredient prepared as described above. Plants, used as controls, are treated with the mixture of acetone/tween/DMSO/water not containing the active material. After 24 hours, the plants are contaminated by spraying the leaves with an aqueous suspension of Pyrenophora teres spores (12 000 spores per mL). The spores are collected from a 12-day-old culture. […] Grading (% of efficacy) is carried out 14 days after the contamination, in comparison with the control plants.

Structure (SMILES)	Efficacy
Cn1nc(C(F)F)c(C(=O)N(Cc2cc(-c3ccco3)ccc2Cl)C2CC2)c1F [I.34]	81%
Cn1cc(C(=O)N(Cc2cc(-c3ccco3)ccc2Cl)C2CC2)c(C(F)F)n1 [I.36]	71%
Cc1ccc(-c2cnn(C)c2)c(CN(C(=O)c2c(C(F)F)nn(C)c2Cl)C2CC2)c1 [I.57]	79%
Cn1cc(C(=O)N(Cc2cc(-c3ccsc3)ccc2Cl)C2CC2)c(C(F)F)n1 [I.93]	88%
Cn1nc(C(F)F)c(C(=O)N(Cc2ccc(Cl)cc2-c2csc3ccccc23)C2CC2)c1F [I.159]	75%

Same assay, conditions: 500 ppm of active ingredient; barley plants; 14 days after contamination

Structure (SMILES)	Efficacy
Cc1csc(-c2ccc(Cl)cc2CN(C(=O)c2c(C(F)F)nn(C)c2F)C2CC2)c1 [I.103]	95%
Cc1nn(C)c(C)c1-c1ccccc1CN(C(=O)c1c(C(F)F)nn(C)c1F)C1CC1 [I.114]	79%
COc1ccsc1-c1ccccc1CN(C(=O)c1c(C(F)F)nn(C)c1F)C1CC1 [I.120]	79%
COc1ccsc1-c1ccc(Cl)cc1CN(C(=O)c1c(C(F)F)nn(C)c1F)C1CC1 [I.121]	86%
Cn1nc(C(F)F)c(C(=O)N(Cc2ccccc2-c2ccsc2Cl)C2CC2)c1F [I.138]	79%

Tested on: Septoria tritici
Assay: In vivo preventive test on Septoria tritici (wheat)
Details: 100 ppm of active ingredient; wheat plants; 24 days after contamination
Procedure: In Vivo Preventive Test on Septoria tritici (Wheat) […] Wheat plants (“Scipion” variety), sown in starter cups on a 50/50 peat soil pozzolana substrate and grown at 22° C., are treated at the 1 leaf stage (10 cm height) by spraying with the active ingredient prepared as described above. Plants, used as controls, are treated with the mixture of acetone/tween/DMSO/water not containing the active material. After 24 hours, the plants are contaminated by spraying the leaves with an aqueous suspension of cryopreserved Septoria tritici spores (500 000 spores per mL). The contaminated wheat plants are incubated for 72 hours at 18° C. and at 100% relative humidity, and then for 21 days at 90% relative humidity. Grading (% of efficacy) is carried out 24 days after the contamination, in comparison with the control plants.

Structure (SMILES)	Efficacy
Cn1cc(C(=O)N(Cc2cc(-c3ccsc3)ccc2Cl)C2CC2)c(C(F)F)n1 [I.93]	86%

Same assay, conditions: 500 ppm of active ingredient; wheat plants; 24 days after contamination

Structure (SMILES)	Efficacy
Cc1csc(-c2ccc(Cl)cc2CN(C(=O)c2c(C(F)F)nn(C)c2F)C2CC2)c1 [I.103]	95%
Cc1nn(C)c(C)c1-c1ccccc1CN(C(=O)c1c(C(F)F)nn(C)c1F)C1CC1 [I.114]	100%
COc1ccsc1-c1ccccc1CN(C(=O)c1c(C(F)F)nn(C)c1F)C1CC1 [I.120]	80%
COc1ccsc1-c1ccc(Cl)cc1CN(C(=O)c1c(C(F)F)nn(C)c1F)C1CC1 [I.121]	80%
COc1ccsc1-c1cc(F)ccc1CN(C(=O)c1c(C(F)F)nn(C)c1F)C1CC1 [I.122]	100%
COc1ccsc1-c1cc(Cl)ccc1CN(C(=O)c1c(C(F)F)nn(C)c1F)C1CC1 [I.123]	94%
Cn1nc(C(F)F)c(C(=O)N(Cc2ccccc2-c2ccsc2Cl)C2CC2)c1F [I.138]	100%
Cn1nc(C(F)F)c(C(=O)N(Cc2ccc(F)cc2-c2csc3ccccc23)C2CC2)c1F [I.158]	98%
Cn1nc(C(F)F)c(C(=O)N(Cc2ccc(Cl)cc2-c2csc3ccccc23)C2CC2)c1F [I.159]	88%

Tested on: Botrytis cinerea
Assay: In vivo preventive test on Botrytis cinerea (grey mould)
Details: 100 ppm of active ingredient; gherkin plants; 4 to 5 days after contamination
Procedure: In Vivo Preventive Test on Botrytis cinerea (Grey Mould) […] Gherkin plants (“Vert petit de Paris” variety), sown in starter cups on a 50/50 peat soil pozzolana substrate and grown at 24° C., are treated at the Z11 cotyledon stage by spraying with the active ingredient prepared as described above. Plants, used as controls, are treated with the mixture of acetone/tween/DMSO/water not containing the active material. After 24 hours, the plants are contaminated by spraying the cotyledons with an aqueous suspension of cryopreserved Botrytis cinerea spores (50 000 spores per mL). The spores are suspended in a nutrient solution composed of 10 g/L of PDB, 50 g/L of D-Fructose, 2 g/L of NH4NO3 and 1 g/L of KH2PO4. The contaminated gherkin plants are incubated at 17° C. and at 90% relative humidity. Grading (% of efficacy) is carried out 4 to 5 days after the contamination, in comparison with the control plants.

Structure (SMILES)	Efficacy
Cn1nc(C(F)F)c(C(=O)N(Cc2cc(-c3ccco3)ccc2Cl)C2CC2)c1F [I.34]	99%

Same assay, conditions: 500 ppm of active ingredient; gherkin plants; 4 to 5 days after contamination

Structure (SMILES)	Efficacy
Cc1csc(-c2ccc(Cl)cc2CN(C(=O)c2c(C(F)F)nn(C)c2F)C2CC2)c1 [I.103]	98%
COc1ccsc1-c1cc(F)ccc1CN(C(=O)c1c(C(F)F)nn(C)c1F)C1CC1 [I.122]	100%
COc1ccsc1-c1cc(Cl)ccc1CN(C(=O)c1c(C(F)F)nn(C)c1F)C1CC1 [I.123]	100%
Cn1nc(C(F)F)c(C(=O)N(Cc2ccccc2-c2ccsc2Cl)C2CC2)c1F [I.138]	100%
Cn1nc(C(F)F)c(C(=O)N(Cc2ccc(F)cc2-c2csc3ccccc23)C2CC2)c1F [I.158]	100%
Cn1nc(C(F)F)c(C(=O)N(Cc2ccc(Cl)cc2-c2csc3ccccc23)C2CC2)c1F [I.159]	100%

Tested on: Puccinia recondita
Assay: In vivo preventive test on Puccinia recondita (brown rust on wheat)
Details: 500 ppm of active ingredient; wheat plants; 12 days after contamination
Procedure: In Vivo Preventive Test on Puccinia recondita (Brown Rust on Wheat) […] Wheat plants (“Scipion” variety), sown in starter cups on a 50/50 peat soil pozzolana substrate and grown at 22° C., are treated at the 1 leaf stage (10 cm height) by spraying with the active ingredient prepared as described above. Plants, used as controls, are treated with the mixture of acetone/tween/DMSO/water not containing the active material. After 24 hours, the plants are contaminated by spraying the leaves with an aqueous suspension of Puccinia recondita spores (100 000 spores per mL). The spores are collected from an infected plant and are suspended in water containing 2.5 mL/L of Tween 80 at 10%. […] Grading (% of efficacy) is carried out 12 days after the contamination, in comparison with the control plants.

Structure (SMILES)	Efficacy
Cc1csc(-c2ccc(Cl)cc2CN(C(=O)c2c(C(F)F)nn(C)c2F)C2CC2)c1 [I.103]	95%
Cc1nn(C)c(C)c1-c1ccccc1CN(C(=O)c1c(C(F)F)nn(C)c1F)C1CC1 [I.114]	72%
COc1ccsc1-c1ccccc1CN(C(=O)c1c(C(F)F)nn(C)c1F)C1CC1 [I.120]	100%
COc1ccsc1-c1ccc(Cl)cc1CN(C(=O)c1c(C(F)F)nn(C)c1F)C1CC1 [I.121]	94%
COc1ccsc1-c1cc(F)ccc1CN(C(=O)c1c(C(F)F)nn(C)c1F)C1CC1 [I.122]	98%
COc1ccsc1-c1cc(Cl)ccc1CN(C(=O)c1c(C(F)F)nn(C)c1F)C1CC1 [I.123]	94%
Cn1nc(C(F)F)c(C(=O)N(Cc2ccccc2-c2ccsc2Cl)C2CC2)c1F [I.138]	94%
Cn1nc(C(F)F)c(C(=O)N(Cc2ccc(F)cc2-c2csc3ccccc23)C2CC2)c1F [I.158]	81%
